Test results as given in PMC8930988, “The NSAID glafenine rescues class 2 CFTR mutants via cyclooxygenase 2 inhibition of the arachidonic acid pathway” (Scientific Reports, 2022).
Counter-ions that a name gives are not always drawn.

Biological target: T1, cyclooxygenase 2 (COX2) (Homo sapiens, UniProt P35354)
T1 construct: gene PTGS2; recombinant COX-2 (kit)
T1 sequence (P35354 18-604): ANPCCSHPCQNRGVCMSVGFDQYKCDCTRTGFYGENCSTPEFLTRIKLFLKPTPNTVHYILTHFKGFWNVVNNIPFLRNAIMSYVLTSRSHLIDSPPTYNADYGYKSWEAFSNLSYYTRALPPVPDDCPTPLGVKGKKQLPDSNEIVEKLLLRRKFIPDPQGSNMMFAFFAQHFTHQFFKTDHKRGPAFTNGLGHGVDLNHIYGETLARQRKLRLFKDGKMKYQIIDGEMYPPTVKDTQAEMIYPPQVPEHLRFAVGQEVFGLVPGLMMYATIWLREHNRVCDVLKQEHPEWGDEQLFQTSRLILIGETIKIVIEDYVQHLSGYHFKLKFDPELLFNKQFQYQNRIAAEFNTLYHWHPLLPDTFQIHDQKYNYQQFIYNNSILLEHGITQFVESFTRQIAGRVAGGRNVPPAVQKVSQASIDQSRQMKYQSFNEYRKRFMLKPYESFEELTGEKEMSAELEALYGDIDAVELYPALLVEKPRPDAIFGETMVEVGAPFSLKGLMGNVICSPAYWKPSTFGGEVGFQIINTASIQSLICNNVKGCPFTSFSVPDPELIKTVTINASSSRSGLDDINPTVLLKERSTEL
Assay: COX activity assay with recombinant enzyme, […] compound (Fig. 4E)
Type: biochemical

With `O=C(OCC(O)CO)c1ccccc1Nc1ccnc2cc(Cl)ccc12` (stereo not shown) [compound 37, 2,3-dihydroxypropyl 2-[(7-chloroquinolin-4-yl)amino] benzoate; hydrochloride] the “COX activity assay with recombinant enzyme, 10 μM compound (Fig. 4E)” value was “COX2 inhibition is required for glafenine-mediated CFTR correction and that glafenine interacts directly with COX2”.
